Columns and labels:
[1] = system: common warts; test: Case treatments of common warts on the hands by topical application (Examples 10-11); type: in vivo, human; settings: Example 11, child, 15%
Excerpt: A child presented with common verrucae on the dorsum of both hands involving the metacarpal-phalangeal joints for over 3 years. […] After 12 weeks, all warty lesions were gone. Twice a week the warts were gently scrubbed with a stiff nylon bristle brush before application of the tea tree oil emulsion to help remove the dead outer keratinized skin.
A child presented with common warts affecting the palms of both hands resistant to treatment. […] Twice weekly gentle scrubbing with a stiff nylon bristle brush before application of the emulsion to help remove the dead outer keratinized skin was performed.

[2] = system: Molluscum contagiosum; settings: in vivo; cited from earlier work

Compound | outcome of earlier conventional treatment of common warts [1] | outcome of earlier conventional treatment of common warts ([1]; listed as salicylic acid) | effect on lesions caused by Molluscum contagiosum [2]
O=C(O)c1ccccc1O [Salicyclic acid] | the warts multiplied and spread | failed to eradicate the viral lesions | 
Nc1nc2c(ncn2COCCO)c(=O)[nH]1 [acyclovir] |  |  | no effect

— US7807202B2, “Compositions for treatment of viral-induced skin lesions and methods of using same” (priority 2003, dated 2010)
